Test results as given in patent publication US5849915A (priority 1996, dated 1998).

How the values were obtained:
[1] = set-up: species or system mice; details: mouse, in vivo, sc
[2] = set-up: species or system mice; details: mouse, in vivo
[3] = set-up: species or system mice; details: mouse, in vivo, sc, 30 min

| SMILES | ED50 (95% confidence limits) in the acetic acid writhing test [1] [mg/kg] | anti-Mor effect (in words) [2] | AD50 (95% confidence limits), dosage required to inhibit Mor analgesia by 50% ([2]; sc) [mg/kg] | ED50 (95% confidence limits) in the hot plate [3] [mg/kg] |
| --- | --- | --- | --- | --- |
| CO[C@]12CC[C@@]3(C[C@@H]1[C@](C)(O)C(C)(C)C)[C@H]1Cc4ccc(O)c5c4[C@@]3(CCN1CC1CC1)[C@H]2O5 [Buprenorphine] | 0.00693 | antagonised Mor analgesia | 1.33 | – |
| CN1CC[C@]23c4c5ccc(O)c4O[C@H]2[C@@H](O)C=C[C@H]3[C@H]1C5 [Morphine] | – | – | – | 5.81 |
